In patent US7598207B2, “Herbicidal composition” (Sumitomo Chemical Company, Limited, priority 2006, dated 2009):

Assays:
Type in all cases: in vivo
[1] = tested on: barnyardgrass; test: Test Example 1: soil-surface granule pot test, herbicidal activity; details: flumioxazin 40 g/ha; granules on soil surface; 48 days after application
Description: (§1) Plastic pots each having a diameter of 18 cm and a height of 14 cm were filled with upland soil, and then seeded with wheat and barnyardgrass. On the surface of the soil of the above-mentioned plastic pots, Flumioxazin granules (granules containing 0.25% of flumioxazin, commercial name: Broad Star, produced by Valent U.S.A.), granules containing Compound [I] (prepared by using one part of Compound [I], 0.5 part of Neocol YSK, 2 parts of Toxanon GR31A, 30 parts of Kunigel VI and 66.5 parts of calcium carbonate according to Formulation example 9), and a mixture of the Flumioxazin granules with the granules containing Compound [I] were applied with hand in a designated amount given by Table 1.
(§2) The treated plants were grown in the greenhouse. The herbicidal activity and phytotoxicity against the crop were examined 48 days after the application.

[2] = tested on: yellow nutsedge; test: Test Example 3: soil-surface spray pot test, herbicidal activity; set-up: key: 0: there is no or little difference in the degree of growth between treated plants and untreated plants at the time of observation; 7: show excellent herbicidal activity; 8: show excellent herbicidal activity; 9: show excellent herbicidal activity; 10: the test plants die completely or their growth is completely inhibited; details: 21 days after application
Description: Plastic pots each having a width of 32 cm, a depth of 22 cm and a height of 8 cm were filled with upland soil, and then planted with a tuber of yellow nutsedge. Next day, Flumioxazin WDG (water dispersible granules containing 51% of flumioxazin, commercial name: Valor SX, produced by Valent U.S.A.), emulsifiable concentrate containing Compound [I] (prepared by dissolving Compound [I] with acetone containing Tween 20 (surfactant, sorbitan monolaurate polyglycol ether)) and a mixture thereof was diluted with a designated amount of water, and applied uniformly on the surface of the soil with a small sprayer.
The treated plants were grown in the greenhouse. The herbicidal activity and phytotoxicity against the crop were examined 21 days after the application.

[3] = tested on: wheat; test: Test Example 1: soil-surface granule pot test, phytotoxicity against crop; details: flumioxazin 40 g/ha; granules on soil surface; 48 days after application
Description: as §1, §2

[4] = tested on: potato; test: Test Example 6: soil-surface granule pot test, phytotoxicity against vegetable; details: flumioxazin 25 g/ha; granules on soil surface; 14 days after application
Description: (§3) Plastic pots each having a diameter of 21 cm and a height of 20 cm were filled with upland soil, and then planted with potato and seeded with barnyardgrass, crabgrass and ivyleaf morningglory. Next day, on the surface of the soil of the above-mentioned plastic pots, Flumioxazin granules (granules containing 0.25% of flumioxazin, commercial name: Broad Star, produced by Valent U.S.A.), granules containing 0.9% of Compound [I] (prepared according to Formulation example 9), and a mixture of the Flumioxazin granules with the granules containing Compound [I] were applied with hand in a designated amount given by Table 6.
(§4) The herbicidal activity and phytotoxicity against the vegetable were examined 14 days after the application.

[5] = tested on: crabgrass; test: Test Example 6: soil-surface granule pot test, herbicidal activity; details: flumioxazin 25 g/ha; granules on soil surface; 14 days after application
Description: as §3, §4

[6] = tested on: barnyardgrass; test: as above; details: flumioxazin 25 g/ha; granules on soil surface; 14 days after application
Description: as §3, §4

[7] = tested on: ivyleaf morningglory; test: as above; details: flumioxazin 25 g/ha; granules on soil surface; 14 days after application
Description: as §3, §4

C#CCN1C(=O)COc2cc(F)c(N3C(=O)C4=C(CCCC4)C3=O)cc21 [flumioxazin, N-(7-fluoro-3,4-dihydro-3-oxo-4-prop-2-ynyl-2H-1,4-benzoxadin-6-yl)cyclohex-1-ene-1,2-dicarboxamide]
Herbicidal activity Barnyardgrass [1]: 4
Herbicidal activity Yellow nutsedge ([2]; flumioxazin 25 g/ha): 0
Herbicidal activity Yellow nutsedge ([2]; flumioxazin 50 g/ha): 1
Phytotoxicity against crop Wheat [3]: No damage
Phytotoxicity against vegetable Potato [4]: No damage
Herbicidal activity Crabgrass [5]: 5
Herbicidal activity Barnyardgrass [6]: 1
Herbicidal activity Ivyleaf morningglory [7]: 1
